This is an account of results in patent publication US10570168B2, “2′ and/or 5′ amino-acid ester phosphoramidate 3′-deoxy adenosine derivatives as anti- cancer compounds” (NuCana plc, priority 2014, dated 2020).

Format in all cases: cell-based
The test system of one assay is CCRF-CEM. The assay can be described thus: CellTiterGlo viability assay, initial screening. Conditions: Homo sapiens, read-out: IC50 (relative IC50). The method, boiled down:
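CTG viability readout after ~72 hr compound exposure. 9 pts, 3.16-fold serial dilution in DMSO, final down to 19.9 nM; DMSO 0.5% final; duplicates; standard CO2 culture.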
On the technique in general: ATP-based viability assays read luminescence as a measure of living cells.

In another assay the test system is HL-60. The assay can be described thus: Solid tumour and haematological malignancy assay (CellTiterGlo). As to conditions: Homo sapiens; for IC50: read-out: IC50 (absolute IC50); for Emax: read-out: MI %. The essentials: (§1)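 Compound pre-warmed to 37° C in medium, added to cells in duplicate; incubated 3 days in CO2 incubator; viability measured with CellTiterGlo. DMSO final 0.5%.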

For the next assay, the system named is HT29. The description is as above. As to conditions: Homo sapiens; for IC50: read-out: IC50 (absolute IC50); for Emax: read-out: MI %. The essentials:
as §1

For another assay, the system named is K562. The description is as above. Conditions: Homo sapiens; for IC50: read-out: IC50 (absolute IC50); for Emax: read-out: MI %. The essentials:
as §1

The subject of the next assay is KG-1. The description is as above. Conditions: Homo sapiens; for IC50: read-out: IC50 (absolute IC50); for Emax: read-out: MI %. The essentials: as §1
The next assay relates to MCF7. The assay is described as above. As to conditions: Homo sapiens; for IC50: read-out: IC50 (absolute IC50); for Emax: read-out: MI %. The essentials:
as §1

The test system of the next assay is MiaPaCa-2. The description is as above. As to conditions: Homo sapiens; for IC50: read-out: IC50 (absolute IC50); for Emax: read-out: MI %. The essentials: as §1
In another assay the test system is RL (CRL-2261). The assay can be described thus: ATP (ViaLight plus) cytotoxicity assay. Here is the method:
Certain compounds of the invention were subjected to further studies to test the cytotoxic activity of certain compounds of the invention and also to measure their activity against 4 haematological cancer cell lines • TdT positive CEM (Human ALL) • TdT negative K562 (Human CML) • TdT negative H1-60 (Human ANLL) • RL (CRL-2261) non-HD lymphoma • The concentrations of the active metabolite dATP (Cordycepin triphosphate) in these cell lines was also measured. • The cytotoxic activity and the intracellular 3′-dATP concentrations were also studied in the presence of hENT1, Adenosine Kinase (AK) and Adenosine Deaminase pharmacological inhibitors in CEM and RL cancer cell lines. Said inhibitors that mimic known cancer resistance mechanisms. Methods Cell Culture
HL-60 (ATCC® CCL-240™), K562 (ATCC® CCL-243™), CCRF-CEM (ATCC® CRM-CCL-119™) and RL (ATCC® CRL-2261™) leukaemia cell lines, obtained from the American Type Culture Collection (ATCC), Middlesex. HL-60 and K562 cell lines are deoxynucleotidyl transferase-negative (TdT-ve), whereas CCRF-CEM cell line is TdT+ve.
HL-60, K562, CCRF-CEM and RL cell lines were cultured in RPMI-1640 medium (Sigma Aldrich, UK), which were supplemented with 10% Fetal Bovine Serum (FBS) (PAA Laboratories), 1% amphotericin B (5.5 ml) and 1% penicillin/streptomycin (5.5 ml) (PAA Laboratories) and grown in flasks at 37° C. incubator with 5% CO2.
The amount of ATP was used as a measurement of cell number and cell viability. ATP ViaLight™ plus assay kit (Lonza, USA: Product No. LT07-121) to detect ATP in cells treated in luminescence compatible 96 well plates (initial concentration of cells was 1×10^4 cells/well) with cordycepin and ProTides at concentrations of: 0, 0.1, 0.5, 1, 5 and 10 μM, followed by incubation for 72 hours at 37° C. incubator with 5% CO2. For inhibitor studies, 10 μM of NBTI or 1 μM EHNA or A-134974 was added and left for 5 minutes before adding the drugs (see section 5 for inhibitor details).
After incubation, 50 μl of cell lysis reagent was added to the 96 well plates to release the intracellular ATP, followed by 100 μl of ATP monitoring reagent (AMR). The luminescent values of each well were determined using FLUOstar OPTIMA microplate reader (BMG Labtech) which convert ATP into light by using luciferase enzyme. Therefore, the amount of luminescence produced was directly proportional to the amount of ATP.
Cell lines were treated in the same way as described above but before treatment with drugs, a number of inhibitors were added: • 1) Nitrobenzylthioinosine (NBTI) (Sigma-Aldrich, St. Louis, Mo., product # N2255) blocks nucleoside transporters • 2) EHNA hydrochloride (Sigma-Aldrich, St. Louis, Mo., product # E114) blocks adenosine deaminase • 3) Adenosine kinase inhibitor A-134974 dihydrochloride hydrate (Sigma-Aldrich, St. Louis, Mo., product # A2846): blocks adenosine kinase
The dose-response curves of cytotoxicity of the drugs was determined using non-linear regression analysis of percentage cell viability versus concentration and EC50 values were obtained. The intracellular assay was conducted in five replicates for each condition. Intracellular assay was determined using paired t test (two-tailed) analysis of 3′ATP/ATP concentration and p-values were obtained. For all the analysis, Prism Software program (GraphPad Software) was used and Microsoft Powerpoint® 2013 was used to plot the results.

Setting [1] is: CRL, with AK (adenosine kinase inhibitor A-134974, 1 μM).
Where [2] appears, read: CRL, with EHNA 1 μM (adenosine deaminase blocker).
The mark [3] stands for this setting: CRL, with NBTI 10 μM (nucleoside transporter blocker).

Where two headings read alike, the source gives them in different places.

A word on the IC50: it is the point on the concentration scale where inhibition reaches its midpoint. Take `C[C@H](NP(=O)(OC[C@@H]1C[C@@H](O)[C@H](n2cnc3c(N)ncnc32)O1)Oc1cccc2ccccc12)C(=O)OCc1ccccc1` (stereo partly drawn) [B, (2S)-benzyl 2-(((((2S,4R,5R)-5-(6-amino-9H-purin-9-yl)-4-hydroxytetrahydrofuran-2-yl)methoxy)(naphthalen-1-yloxy)phosphoryl)amino)propanoate]: the IC50 in the assay with CCRF-CEM (72 h) is 0.1 to 5 µM; with HL-60 (HL-60, 72 h), 0.1 to 5 µM; in the assay with HT29 (HT-29, 72 h), 5 to 15 µM; in the assay with K562 (K562, 72 h), 0.1 to 5 µM; in the assay with KG-1 (KG-1, 72 h) it was 5 to 15 µM; in the assay on MCF7 (MCF7, 72 h) it was 0.1 to 5 µM. Also, the 50% inhibitory concentration (IC50) was 0.1 to 5 µM in the assay on MiaPaCa-2 (MIA PaCa-2, 72 h); 0.4 µM in the assay with RL (CRL-2261) (72 h, CRL (RL, CRL-2261)); 3.1 µM with RL (CRL-2261) (CRL, Control (no inhibitor)); 2.8 µM in the assay with RL (CRL-2261) (setting [1]); 5.2 µM with RL (CRL-2261) (setting [2]); 2.6 µM with RL (CRL-2261) (setting [3]). Moreover, the “(FD) fold difference compared to control” value in the assay on RL (CRL-2261) (CRL, IC50 with AK inhibitor) is “(1)”; in the assay on RL (CRL-2261) (CRL, IC50 with EHNA), “(2)”; in the assay on RL (CRL-2261) (CRL, IC50 with NBTI), “(1)”.

With `Nc1ncnc2c1ncn2[C@@H]1O[C@H](CO)C[C@H]1O` [Cordycepin, 3′-deoxyadenosine, reference compound], the IC50 in the assay on CCRF-CEM (72 hr) was 15 to 100 µM; in the assay with HL-60 (HL-60, 72 hr), > 100 µM; in the assay on HT29 (HT-29, HT29, 72 hr), > 100 µM; in the assay with K562 (K562, 72 hr), 15 to 100 µM; with KG-1 (KG-1, 72 hr) it was > 100 µM; with MCF7 (MCF7, 72 hr), > 100 µM. Besides, the IC50 was > 100 µM in the assay on MiaPaCa-2 (MIA PaCa-2, MiaPaCa-2, 72 hr); 24.5 µM with RL (CRL-2261) (72 h, CRL (RL, CRL-2261), 72 hours, read-out: IC50); 7.3 µM with RL (CRL-2261) (CRL, Control (no inhibitor), read-out: IC50); 28.6 µM in the assay with RL (CRL-2261) (CRL, with AK (adenosine kinase inhibitor A-134974, 1 μM), read-out: IC50); 13.2 µM with RL (CRL-2261) (CRL, with EHNA 1 μM (adenosine deaminase blocker), read-out: IC50); 17.9 µM in the assay with RL (CRL-2261) (CRL, with NBTI 10 μM (nucleoside transporter blocker), read-out: IC50). In addition, the Emax was found to be 61% with HL-60 (HL-60, 72 hr); 44% in the assay on HT29 (HT-29, HT29, 72 hr); 78% with K562 (K562, 72 hr); 69% in the assay on KG-1 (KG-1, 72 hr); 77% with MCF7 (MCF7, 72 hr); 35% with MiaPaCa-2 (MIA PaCa-2, MiaPaCa-2, 72 hr).

For `COC(=O)C(C)(C)NP(=O)(OC[C@@H]1C[C@@H](O)[C@H](n2cnc3c(N)ncnc32)O1)Oc1cccc2ccccc12` (stereo partly drawn) [E, Methyl 2-(((((2S,4R,5R)-5-(6-amino-9H-purin-9-yl)-4-hydroxytetrahydrofuran-2-yl)-methoxy)(naphthalen-1-yloxy)phosphoryl)amino)-2-methylpropanoate], the IC50 with CCRF-CEM (72 h) was 15 to 100 µM; in the assay on HL-60 (HL-60, 72 h), 5 to 15 µM; in the assay with HT29 (HT-29, 72 h), 15 to 100 µM; with K562 (K562, 72 h) it was 5 to 15 µM; in the assay on KG-1 (KG-1, 72 h) it was 15 to 100 µM; in the assay on MCF7 (MCF7, 72 h), 5 to 15 µM. Moreover, the concentration for half-maximal inhibition (IC50) is 15 to 100 µM in the assay with MiaPaCa-2 (MIA PaCa-2, 72 h); 11 µM in the assay with RL (CRL-2261) (72 h, CRL (RL, CRL-2261)); 8.2 µM in the assay on RL (CRL-2261) (CRL, Control (no inhibitor)); 7.1 µM in the assay on RL (CRL-2261) (setting [1]); 5.9 µM in the assay on RL (CRL-2261) (setting [2]); 8.2 µM in the assay with RL (CRL-2261) (setting [3]). In addition, the Emax amounted to 90% in the assay with K562 (K562, 72 h) and 100% in the assay with KG-1 (KG-1, 72 h). Moreover, the “(FD) fold difference compared to Cordycepin = Cordycepin IC50/ProTide IC50” value in the assay with RL (CRL-2261) (CRL (RL, CRL-2261)) is given as “(2)”. The “(FD) fold difference compared to control” value with RL (CRL-2261) (CRL, IC50 with AK inhibitor) is “(1)”; in the assay on RL (CRL-2261) (CRL, IC50 with EHNA), “(1)”; with RL (CRL-2261) (CRL, IC50 with NBTI), “(1)”.

As for `CCOC(=O)CCc1ccccc1OP(=O)(N[C@@H](C)C(=O)OCc1ccccc1)OC[C@@H]1C[C@@H](O)[C@H](n2cnc3c(N)ncnc32)O1` (stereo partly drawn) [F, (2S)-benzyl 2-(((((2S,4R,5R)-5-(6-amino-9H-purin-9-yl)-4-hydroxytetrahydrofuran-2-yl)methoxy)(2-(3-ethoxy-3-oxopropyl)phenoxy)phosphoryl)amino)propanoate], the IC50 in the assay on HL-60 (HL-60, 72 h) lay within 5 to 15 µM; in the assay on HT29 (HT-29, 72 h), 15 to 100 µM; with K562 (K562, 72 h), 0.1 to 5 µM; in the assay on KG-1 (KG-1, 72 h) it was 15 to 100 µM; with MCF7 (MCF7, 72 h), 5 to 15 µM; in the assay on MiaPaCa-2 (MIA PaCa-2, 72 h), 5 to 15 µM. The half-inhibitory concentration (IC50) in the assay with RL (CRL-2261) (72 h, CRL (RL, CRL-2261)) was 3.4 µM. Besides, in the assay with RL (CRL-2261) (CRL (RL, CRL-2261)), the “(FD) fold difference compared to Cordycepin = Cordycepin IC50/ProTide IC50” value is listed as “(7)”.

Consider `Nc1ncnc2c1ncn2[C@@H]1O[C@H](COP(=O)(NCC(=O)OCc2ccccc2)Oc2ccccc2)C[C@H]1O` (stereo partly drawn) [C, Benzyl 2-(((((2S,4R,5R)-5-(6-amino-9H-purin-9-yl)-4-hydroxytetrahydrofuran-2-yl)methoxy)(phenoxy)phosphoryl)amino)acetate], for which the IC50 fell in the range of 5 to 15 µM in the assay with CCRF-CEM (72 h); 5 to 15 µM in the assay on HL-60 (HL-60, 72 h); 15 to 100 µM with HT29 (HT-29, 72 h); 5 to 15 µM in the assay on K562 (K562, 72 h); 15 to 100 µM in the assay on KG-1 (KG-1, 72 h); 0.1 to 5 µM in the assay on MCF7 (MCF7, 72 h). In addition, the IC50 with MiaPaCa-2 (MIA PaCa-2, 72 h) was in the range of 5 to 15 µM. The Emax in the assay with HL-60 (HL-60, 72 h) came to 100%; in the assay with HT29 (HT-29, 72 h), 99%; in the assay on K562 (K562, 72 h) it was 100%; with KG-1 (KG-1, 72 h) it was 102%; with MCF7 (MCF7, 72 h) it was 102%; in the assay on MiaPaCa-2 (MIA PaCa-2, 72 h), 106%.
